From patent publication US20080280920A1, “Plasminogen Activator Inhibitor-1 Inhibitors” (priority 2005, published 2008)

Key:
[1] = tested on: 60 different human cancer cell lines; experiment: NCI in vitro anticancer screen (whole panel); format: cell-based
SN12C = experiment: NCI anticancer screen, SN12C; format: cell-based, human; details: Renal, 48 h
NCI-H460 = experiment: NCI anticancer screen, NCI-H460; format: cell-based, human; details: NCI-H460, Non-Small Cell Lung, 48 h
NCI-H23 = experiment: NCI anticancer screen, NCI-H23; format: cell-based, human; details: NCI-H23, Non-Small Cell Lung, 48 h
OVCAR-8 = experiment: NCI anticancer screen, OVCAR-8; format: cell-based, human; details: OVCAR-8, Ovarian, 48 h
786-0 = experiment: NCI anticancer screen, 786-0; format: cell-based, human; details: 786-0, Renal, 48 h
T-47D = experiment: NCI anticancer screen, T-47D; format: cell-based, human; details: Breast, 48 h
COLO 205 = experiment: NCI anticancer screen, COLO 205; format: cell-based, human; details: COLO 205, Colon, 48 h
DU-145 = experiment: NCI anticancer screen, DU-145; format: cell-based, human; details: DU-145, Prostate, 48 h
SF-295 = experiment: NCI anticancer screen, SF-295; format: cell-based, human; details: SF-295, CNS, 48 h
SNB-19 = experiment: NCI anticancer screen, SNB-19; format: cell-based, human; details: SNB-19, CNS, 48 h
OVCAR-3 = experiment: NCI anticancer screen, OVCAR-3; format: cell-based, human; details: OVCAR-3, Ovarian, 48 h
HCT-15 = experiment: NCI anticancer screen, HCT-15; format: cell-based, human; details: HCT-15, Colon, 48 h
OVCAR-5 = experiment: NCI anticancer screen, OVCAR-5; format: cell-based, human; details: OVCAR-5, Ovarian, 48 h
SNB-75 = experiment: NCI anticancer screen, SNB-75; format: cell-based, human; details: SNB-75, CNS, 48 h
ACHN = experiment: NCI anticancer screen, ACHN; format: cell-based, human; details: Renal, 48 h
A498 = experiment: NCI anticancer screen, A498; format: cell-based, human; details: A498, Renal, 48 h
MDA-MB-231/ATCC = experiment: NCI anticancer screen, MDA-MB-231/ATCC; format: cell-based, human; details: Breast, 48 h
KM12 = experiment: NCI anticancer screen, KM12; format: cell-based, human; details: KM12, Colon, 48 h
A549/ATCC = experiment: NCI anticancer screen, A549/ATCC; format: cell-based, human; details: Non-Small Cell Lung, 48 h
RXF 393 = experiment: NCI anticancer screen, RXF 393; format: cell-based, human; details: RXF 393, Renal, 48 h
M14 = experiment: NCI anticancer screen, M14; format: cell-based, human; details: M14, Melanoma, 48 h
NCI/ADR-RES = experiment: NCI anticancer screen, NCI/ADR-RES; format: cell-based, human; details: Breast, 48 h
SR = experiment: NCI anticancer screen, SR; format: cell-based, human; details: Leukemia, 48 h
NCI-H226 = experiment: NCI anticancer screen, NCI-H226; format: cell-based, human; details: NCI-H226, Non-Small Cell Lung, 48 h
SK-MEL-28 = experiment: NCI anticancer screen, SK-MEL-28; format: cell-based, human; details: SK-MEL-28, Melanoma, 48 h
HCT-116 = experiment: NCI anticancer screen, HCT-116; format: cell-based, human; details: HCT-116, Colon, 48 h
MDA-MB-435 = experiment: NCI anticancer screen, MDA-MB-435; format: cell-based, human; details: MDA-MB-435, Breast, 48 h
HT29 = experiment: NCI anticancer screen, HT29; format: cell-based, human; details: HT29, Colon, 48 h
NCI-H322M = experiment: NCI anticancer screen, NCI-H322M; format: cell-based, human; details: Non-Small Cell Lung, 48 h
K-562 = experiment: NCI anticancer screen, K-562; format: cell-based, human; details: K-562, Leukemia, 48 h
LOX IMVI = experiment: NCI anticancer screen, LOX IMVI; format: cell-based, human; details: Melanoma, 48 h
[2] = Homo sapiens, read-out: LC50 (the source's name)

SMILES: COc1cc(CNCC2CCN(C(=O)OC(C)(C)C)CC2)cc(CN2CCN(c3ccccn3)CC2)c1O [Compound Q012132, 2-Methoxy-4-({[(N-t-butyloxycarbonylpiperidin-4-yl)methyl]amino}methyl)-6-[(4-pyridin-2-ylpiperazin-1-yl)methyl]phenol]
- growth and proliferation of human primary cancer cell-lines (in words) ([1]; NCI screen, 48 h): inhibited growth and proliferation
- cytostatic / cytotoxic effects on human cancer cell-lines (in words) ([1]; low micromolar concentrations, leukemia, melanoma, colon and central nervous system cell-lines): cytostatic and cytotoxic effects
- CC50 (SN12C; [2]): > 100 µM
- TGI (SN12C): >100 µM
- GI50 (NCI-H460; Homo sapiens): 21.3 µM
- CC50 (NCI-H460; [2]): 81.7 µM
- TGI (NCI-H460): 41.7 µM
- GI50 (NCI-H23; Homo sapiens): 29.6 µM
- CC50 (NCI-H23; [2]): > 100 µM
- TGI (NCI-H23): >100 µM
- GI50 (OVCAR-8; Homo sapiens): 22.3 µM
- CC50 (OVCAR-8; [2]): > 100 µM
- TGI (OVCAR-8): 61.8 µM
- TGI (786-0): 28.2 µM
- GI50 (786-0; Homo sapiens): 14.9 µM
- CC50 (786-0; [2]): 53.1 µM
- TGI (T-47D): 44.4 µM
- GI50 (T-47D; Homo sapiens, T47D): 16.2 µM
- CC50 (T-47D; Homo sapiens, T47D, read-out: LC50 (the source's name)): > 100 µM
- TGI (COLO 205): 34.8 µM
- GI50 (COLO 205; Homo sapiens): 16.8 µM
- CC50 (COLO 205; [2]): 72.1 µM
- TGI (DU-145): >100 µM
- GI50 (DU-145; Homo sapiens): 38.8 µM
- CC50 (DU-145; [2]): > 100 µM
- GI50 (SF-295; Homo sapiens): 19.3 µM
- CC50 (SF-295; [2]): 89 µM
- TGI (SF-295): 41.4 µM
- GI50 (SNB-19; Homo sapiens): 41.8 µM
- CC50 (SNB-19; [2]): > 100 µM
- TGI (SNB-19): >100 µM
- GI50 (OVCAR-3; Homo sapiens): 33.1 µM
- CC50 (OVCAR-3; [2]): > 100 µM
- TGI (OVCAR-3): >100 µM
- TGI (HCT-15): 36.9 µM
- GI50 (HCT-15; Homo sapiens): 16.8 µM
- CC50 (HCT-15; [2]): 80.8 µM
- GI50 (OVCAR-5; Homo sapiens): 29.3 µM
- CC50 (OVCAR-5; [2]): > 100 µM
- TGI (OVCAR-5): >100 µM
- GI50 (SNB-75; Homo sapiens): 22.3 µM
- LC50 (concentration killing 50% of cells) (SNB-75; Homo sapiens): > 100 µM
- TGI (SNB-75): 49.8 µM
- GI50 (ACHN; Homo sapiens): 21 µM
- CC50 (ACHN; [2]): > 100 µM
- TGI (ACHN): 48.5 µM
- TGI (A498): 36.3 µM
- GI50 (A498; Homo sapiens): 17.8 µM
- CC50 (A498; [2]): 74.1 µM
- TGI (MDA-MB-231/ATCC): 41.0 µM
- GI50 (MDA-MB-231/ATCC; Homo sapiens): 17.8 µM
- CC50 (MDA-MB-231/ATCC; [2]): 94.3 µM
- GI50 (KM12; Homo sapiens): 31.6 µM
- CC50 (KM12; [2]): > 100 µM
- TGI (KM12): >100 µM
- GI50 (A549/ATCC; Homo sapiens): 31.2 µM
- LC50 (A549/ATCC; Homo sapiens): > 100 µM
- TGI (A549/ATCC): >100 µM
- GI50 (RXF 393; Homo sapiens): 13.6 µM
- CC50 (RXF 393; [2]): 67.2 µM
- TGI (RXF 393): 30.2 µM
- GI50 (M14; Homo sapiens): 5.8 µM
- CC50 (M14; [2]): 41.9 µM
- TGI (M14): 17.5 µM
- TGI (NCI/ADR-RES): 79.2 µM
- GI50 (NCI/ADR-RES; Homo sapiens): 21.4 µM
- CC50 (NCI/ADR-RES; [2]): > 100 µM
- GI50 (SR; Homo sapiens): 11 µM
- CC50 (SR; [2]): 84.4 µM
- TGI (SR): 30.5 µM
- GI50 (NCI-H226; Homo sapiens): 65.5 µM
- LC50 (concentration giving 50% net cell kill) (NCI-H226; Homo sapiens): > 100 µM
- TGI (NCI-H226): >100 µM
- GI50 (SK-MEL-28; Homo sapiens): 16.8 µM
- CC50 (SK-MEL-28; [2]): 75.5 µM
- TGI (SK-MEL-28): 35.6 µM
- TGI (HCT-116): 22.6 µM
- GI50 (HCT-116; Homo sapiens): 10.8 µM
- LC50 (50% lethal concentration) (HCT-116; Homo sapiens): 47.6 µM
- GI50 (MDA-MB-435; Homo sapiens): 18.2 µM
- CC50 (MDA-MB-435; [2]): 73.1 µM
- TGI (MDA-MB-435): 36.4 µM
- TGI (HT29): 16.7 µM
- GI50 (HT29; Homo sapiens, HT-29): 3.11 µM
- CC50 (HT29; Homo sapiens, HT-29, read-out: LC50 (the source's name)): 63 µM
- GI50 (NCI-H322M; Homo sapiens): 37.8 µM
- CC50 (NCI-H322M; [2]): > 100 µM
- TGI (NCI-H322M): >100 µM
- GI50 (K-562; Homo sapiens, K562): 5.21 µM
- CC50 (K-562; Homo sapiens, K562, read-out: LC50 (the source's name)): 73.5 µM
- TGI (K-562): 19.6 µM
- GI50 (LOX IMVI; Homo sapiens): 14.1 µM
- LC50 (concentration giving 50% net cell kill) (LOX IMVI; Homo sapiens): 55.1 µM
- TGI (LOX IMVI): 27.9 µM
